# Source: patent publication US8198325B2, “Unsaturated alkyl esters of 5-aminolevulinic acid, their preparation and their use” (Industry Foundation of Chonnam National University, priority 2006, dated 2012)
# How the values were obtained:
# A431 cells = assay: Fluorescence spectroscopy of PpIX synthesis in A431 cells (FIG. 1); assay type: cell-based; settings: 4 hours incubation, excitation 405 nm, emission 605 nm
# Procedure: 4. Fluorescence Spectroscopy
# The synthesis of PpIX, induced by ALA and unsaturated alkyl esters of ALA in cells and skin tissues, was quantified using fluorescence spectroscopy.
# The intensity of PpIX was measured on a fluorescence spectrophotometer (Uvikon, model 943) with excitation at 408 nm.
# Each cell line was plated at a density of 2×10^5 cells in a 10 cm^2-dish (Falcon), and when the cells reached a confluent state of 70˜80%, serum-free media containing various concentrations (0.001˜1 mM) of ALA or ALA esters was added to the cells, followed by incubation for 4 hours.
# After being washed once with PBS, the cells were detached with a 50% methanol solution containing 1M […] (HClO4) and scraped off using a Costar cell scraper.
# The cells thus harvested were incubated for 5 min and centrifuged.
# The fluorescence of the supernatant thus obtained was determined using a spectrofluorometer with excitation at 405 nm and emission at 605 nm.
# The results are graphed in FIGS. 1 and 2.
# [1] = tested on: Malignant melanoma (TMX 13); assay: Cytotoxicity test (cell survival), MTT assay, TXM 13; assay type: cell-based; settings: 24 hours
# Procedure: (§1) 3. Cytotoxicity Test (Cell Survival Test)
# (§2) Cytotoxicity was conducted through an MTT assay (Chemicon, Serologicals Corporation, USA) as follows.
# (§3) Cells were seeded at a density of 3×10^4 cells/well in 96-well plates (Nunc Do, Denmark).
# (§4) When the cells were at a confluence of about 60˜70%, 24 hours after seeding, the media was exchanged for 100 μl of fresh, serum-free media containing various respective concentrations of ALA or ALA-ester, after which the cells were incubated for an additional 24 hours.
# (§5) An MTT solution (0.5 mg/mL) was added in an amount of […] to each well, followed by incubation for 4 hours to form formazan crystals. A color-developing solution (isopropanol with 0.04 N HCl) was added in an amount of […] per well to solubilize the formazan crystals.
# (§6) The plates were measured for absorbance at 570 nm using an ELISA reader (EMAX, Molecular Device, USA).
# (4) Malignant Melanoma (TMX 13)
# [2] = tested on: Squamous cell carcinoma (A431); assay: Cytotoxicity test (cell survival), MTT assay, A431; assay type: cell-based; settings: 24 hours
# Procedure: as §1, §2, §3, §4, §5, §6
# (3) Squamous Cell Carcinoma (A431)
# [3] = tested on: Human dermal fibroblast (hF); assay: Cytotoxicity test (cell survival), MTT assay, hF; assay type: cell-based; settings: 24 hours
# Procedure: as §1, §2, §3, §4, §5, §6
# (2) Human Dermal Fibroblast (hF)
# [4] = tested on: Human epidermal keratinocyte (HEK); assay: Cytotoxicity test (cell survival), MTT assay, HEK; assay type: cell-based; settings: 24 hours; for MTT absorbance (OD): 570 nm; for Cell survival Avg (%) ± SD (%): Table 3; for activity at 10 µM / activity at 2000 µM / activity at 50 µM / activity at 100 µM / activity at 500 µM / activity at 1000 µM / activity at 5000 µM: Homo sapiens, Table 2, read-out: Cell survival (% of control C, in brackets); for activity at 10 µM: HEK001, 0.01 mM; for activity at 2000 µM: HEK2, 2 mM; for activity at 50 µM / activity at 100 µM / activity at 500 µM / activity at 1000 µM / activity at 5000 µM: Keratinocyte
# Procedure: as §1, §2, §3, §4, §5, §6
# (1) Human Epidermal Keratinocyte (HEK)
# Cell survival of the human epidermal keratinocytes treated with ALA esters of the present invention and with ALA was compared. The results are summarized in Tables 1 and 2, which are represented in different manners depending on the measurements.
# [5] = tested on: skin of ICR mice (epidermis, sebaceous gland); assay: Cell death in skin tissue after ointment and LED irradiation, H&E (FIGS. 9, 10); assay type: in vivo; settings: for Sebaceous gland morphology after irradiation: 24 hours after visible light 25 J/cm^2, FIG. 10; for Epidermis histology (H&E) after irradiation: 48 hours after visible light 25 J/cm^2, FIGS. 9B and 9C
# Procedure: Ointments comprising ALA or the ALA esters of the present invention at various concentrations (5˜15%) were applied in a predetermined amount ([…]) to the back of shaved ICR mice.
# 1 and 4 hours after the application, the back was irradiated with LED visible light (dose 25 J/cm^2).
# 24, 48 and 72 hours after the irradiation, skin samples were taken from the back of the mice, stained with hematoxylin-eosin (H&E) and observed for cell death.
structure (smiles),measurement,setting,value
"COC(=O)CCC(=O)CN [ALA-1, 5-Aminolevulinic acid methyl ester, reference compound]",PpIX synthesis compared with ALA,A431 cells,greater PpIX synthesis in A431 cells than did ALA
same,Cell survival Avg ± SD (%),"[1]; TXM 13, 0.01 mM",104.69 ± 6.64%
same,Cell survival Avg ± SD (%),"[1]; TXM 13, 0.05 mM",100.34 ± 4.39%
same,Cell survival Avg ± SD (%),"[1]; TXM 13, 0.1 mM",87.37 ± 8.13%
same,Cell survival Avg ± SD (%),"[1]; TXM 13, 0.5 mM",64.59 ± 3.95%
same,Cell survival Avg ± SD (%),"[1]; TXM 13, 1 mM",69.86 ± 8.83%
same,Cell survival Avg ± SD (%),"[1]; TXM 13, 2 mM",69.94 ± 13.42%
same,Cell survival Avg (%) ± SD (%),"[2]; A431, 0.01 mM",101.03 ± 0.71%
same,Cell survival Avg (%) ± SD (%),"[2]; A431, 0.05 mM",103.06 ± 1.05%
same,Cell survival Avg (%) ± SD (%),"[2]; A431, 0.5 mM",101.75 ± 3.52%
same,Cell survival Avg (%) ± SD (%),"[2]; A431, 1 mM",101.45 ± 1.54%
same,Cell survival Avg (%) ± SD (%),"[2]; A431, 2 mM",98.4 ± 1.2%
same,Cell survival Avg (%) ± SD (%),[3]; 0.01 mM,110.33 ± 15.01%
same,Cell survival Avg (%) ± SD (%),[3]; 0.05 mM,116.86 ± 17.63%
same,Cell survival Avg (%) ± SD (%),[3]; 0.1 mM,110.44 ± 17.98%
same,Cell survival Avg (%) ± SD (%),[3]; 0.5 mM,113 ± 22.58%
same,Cell survival Avg (%) ± SD (%),[3]; 1 mM,120.48 ± 10.91%
same,Cell survival Avg (%) ± SD (%),[3]; 2 mM,87.65 ± 14.77%
same,MTT absorbance (OD),[4]; 0.01 mM,2.952 OD
same,Cell survival Avg (%) ± SD (%),[4]; 0.01 mM,116.69 ± 1%
same,MTT absorbance (OD),[4]; 0.05 mM,3.482 OD
same,Cell survival Avg (%) ± SD (%),[4]; 0.05 mM,94.01 ± 0.71%
same,MTT absorbance (OD),[4]; 0.1 mM,3.313 OD
same,Cell survival Avg (%) ± SD (%),[4]; 0.1 mM,125.58 ± 1.05%
same,MTT absorbance (OD),[4]; 0.5 mM,3.421 OD
same,Cell survival Avg (%) ± SD (%),[4]; 0.5 mM,88.14 ± 0.95%
same,MTT absorbance (OD),[4]; 1 mM,3.435 OD
same,Cell survival Avg (%) ± SD (%),[4]; 1 mM,72.02 ± 3.52%
same,MTT absorbance (OD),[4]; 2 mM,3.093 OD
same,Cell survival Avg (%) ± SD (%),[4]; 2 mM,83.69 ± 1.54%
same,MTT absorbance (OD),[4]; 5 mM,2.398 OD
same,activity at 10 µM,[4],88.8%
same,activity at 2000 µM,[4],93%
same,activity at 50 µM,[4]; 0.05 mM,104%
same,activity at 100 µM,[4]; 0.1 mM,99.6%
same,activity at 500 µM,[4]; 0.5 mM,103%
same,activity at 1000 µM,[4]; 1 mM,103%
same,activity at 5000 µM,[4]; 5 mM,69%
same,Sebaceous gland morphology after irradiation,[5],destroyed partially or wholly
same,Epidermis histology (H&E) after irradiation,[5],both necrosis and rejuvenation
"C=CCCCCOC(=O)CCC(=O)CN [ALA-6, 5-Aminolevulinic acid 5-hexenyl ester]",PpIX synthesis compared with ALA,A431 cells,greater PpIX synthesis in A431 cells than did ALA
same,Cell survival Avg ± SD (%),"[1]; TXM 13, 0.01 mM",92.05 ± 9.09%
same,Cell survival Avg ± SD (%),"[1]; TXM 13, 0.05 mM",99.41 ± 8.25%
same,Cell survival Avg ± SD (%),"[1]; TXM 13, 0.1 mM",81.45 ± 6.38%
same,Cell survival Avg ± SD (%),"[1]; TXM 13, 0.5 mM",77.18 ± 8.17%
same,Cell survival Avg ± SD (%),"[1]; TXM 13, 1 mM",76.06 ± 6.81%
same,Cell survival Avg ± SD (%),"[1]; TXM 13, 2 mM",53.24 ± 6.8%
same,Cell survival Avg (%) ± SD (%),"[2]; A431, 0.01 mM",101.04 ± 0.88%
same,Cell survival Avg (%) ± SD (%),"[2]; A431, 0.05 mM",91.32 ± 3.42%
same,Cell survival Avg (%) ± SD (%),"[2]; A431, 0.1 mM",86.8 ± 3.22%
same,Cell survival Avg (%) ± SD (%),"[2]; A431, 0.5 mM",84.16 ± 5.58%
same,Cell survival Avg (%) ± SD (%),"[2]; A431, 1 mM",88.47 ± 4.59%
same,Cell survival Avg (%) ± SD (%),"[2]; A431, 2 mM",66.21 ± 4.43%
same,Cell survival Avg (%) ± SD (%),[3]; 0.01 mM,113.29 ± 13.51%
same,Cell survival Avg (%) ± SD (%),[3]; 0.05 mM,98.47 ± 13.03%
same,Cell survival Avg (%) ± SD (%),[3]; 0.1 mM,92.42 ± 13.86%
same,Cell survival Avg (%) ± SD (%),[3]; 0.5 mM,91.41 ± 9.04%
same,Cell survival Avg (%) ± SD (%),[3]; 1 mM,80.78 ± 5.6%
same,Cell survival Avg (%) ± SD (%),[3]; 2 mM,86.12 ± 5.37%
same,MTT absorbance (OD),[4]; 0.01 mM,3.13 OD
same,Cell survival Avg (%) ± SD (%),[4]; 0.01 mM,106.44 ± 0.37%
same,MTT absorbance (OD),[4]; 0.05 mM,3.413 OD
same,Cell survival Avg (%) ± SD (%),[4]; 0.05 mM,77.97 ± 0.88%
same,MTT absorbance (OD),[4]; 0.1 mM,3.18 OD
same,Cell survival Avg (%) ± SD (%),[4]; 0.1 mM,69 ± 3.42%
same,MTT absorbance (OD),[4]; 0.5 mM,2.521 OD
same,Cell survival Avg (%) ± SD (%),[4]; 0.5 mM,61.39 ± 3.22%
same,MTT absorbance (OD),[4]; 1 mM,2.548 OD
same,Cell survival Avg (%) ± SD (%),[4]; 1 mM,62 ± 5.58%
same,MTT absorbance (OD),[4]; 2 mM,2.306 OD
same,Cell survival Avg (%) ± SD (%),[4]; 2 mM,62 ± 1.59%
same,MTT absorbance (OD),[4]; 5 mM,1.388 OD
same,activity at 10 µM,[4],91.2%
same,activity at 2000 µM,[4],67.3%
same,activity at 50 µM,[4]; 0.05 mM,99.4%
same,activity at 100 µM,[4]; 0.1 mM,92.7%
same,activity at 500 µM,[4]; 0.5 mM,73.4%
same,activity at 1000 µM,[4]; 1 mM,74.3%
same,activity at 5000 µM,[4]; 5 mM,40.2%
same,Sebaceous gland morphology after irradiation,[5],destroyed partially or wholly
same,Epidermis histology (H&E) after irradiation,[5],both necrosis and rejuvenation
